The term solubility denotes the concentration that dissolves in the medium under given conditions.

The target of series [1] is T1, HBV DNA polymerase (Hepatitis B virus genotype D subtype ayw, UniProt P03156).
T1 construct: HBV particles containing DNA polymerase activity were purified from the serum of an immunosuppressed patient; from tissue; host or cells: virus particles purified from the serum of an HBsAg-positive immunosuppressed patient
Kind of series: HBV endogenous DNA polymerase assay, inhibition by nucleoside triphosphate analogs. The class given is biochemical, hepatitis B virion (HBV). The following applies: for ID50 relative to ID50 of FIACTP: times more than FIACTP; for Nature of inhibition (Lineweaver-Burk plots): versus dGTP (ACVTP), dCTP (FIACTP), dTTP (BVdUTP); for Relative efficiency as inhibitor of HBV DNA polymerase: excess of nucleotides (50 uM). An excerpt: (§1) HBV particles containing DNA polymerase activity were purified from the serum of an immunosuppressed patient, positive for HBsAg. WHV was obtained from a serum pool of five woodchucks (Marmota monax) chronic carriers of the virus. The woodchucks initially imported from Pennsylvania (Dutchland Lab. Pennsylvania, USA) belonged to a colony followed for over one year by serological tests (Hantz et al, J. Virol. Metho. 7, 45-55 (1983)).
(§2) Virus was purified by centrifugation on sucrose and isopycnic CsCl gradients. (Hantz et al submitted for publication).
(§3) DNA polymerase was assayed as described by Kaplan et al (J. Virol., 12, 995 (1973)) with minor modification. The assay was performed in a 50 ul reaction mixture containing 50 mM Tris-HCl pH=7,6,40 mM MgC12, 60 mM NH4 Cl, 100 uM each dATP, dCTP and dGTP, 0.2-0.7 uM [^3 H] dTTP (30 Ci/mmol), 10 mM 2-mercaptoethanol, 0.5% Nonidet P 40 and enzyme. The reaction was started by addition of the virus particles with 2-mercaptoethanol and Nonidet P 40. Incubation was at 37° C. for 1 h. Acid insoluble radioactive material was collected on a glass fiber filter (GF/C Whatman) Filters were washed 5 times with cold 5% trichloracetic acid containing 10 mM sodium pyrophosphate, then with 95% ethanol. Radioactivity of the dried filter was measured in a liquid scintillation counter.
(§4) The relative sensitivities of both enzymes to CVTP, FIACTP and BVdUTP were compared using an excess of nucleotides. For each inhibitor, the concentration of the corresponding radioactive triphosphate was maintained at 2 to 3 times the Km value while the remaining nucleotides were in great excess (50 uM).
(§5) Although the mode of action for the various compounds is known to be different, the nature of ACVTP, FIACTP and BVdUTP inhibition of viral DNA synthesis catalyzed by HBV and WHV DNA polymerases was examined by determining the extent of inhibition with increasing concentrations of the substrates. In assays with ACVTP, [^3 H] dGTP was the rate limiting substrate while the other three nucleotides were in excess. The same conditions were used with [^3 H] dCTP for FIACTP and [^3 H] dTTP for BVdUTP inhibition. […] Similar results were obtained for WHV DNA polymerase.

In series [2] the target is T1, HBV DNA polymerase. The series is described as follows: Time course of HBV DNA synthesis, normal substrate added after 120 min with analog. The class given is biochemical, hepatitis B virion (HBV). The settings on record: for HBV DNA synthesis after addition of the normal substrate at 120 min of reaction with the analog: ACVTP 5 uM then 100 um dGTP, ara-ATP then dATP, ara-CTP then dCTP. How it is done:
as §3
The effect of ACVTP on HBV DNA synthesis was also studied in a time course experiment ^3 H] dTTP was the labelled substrate. The reaction was initiated without dGTP or with 5 um ACVTP instead of dGTP. […] After 120 min of reaction, 100 uM of dGTP was added. In the assay without dGTP only, the addition of dGTP increased DNA synthesis as expected.

In series [3] the target is T2, WHV DNA polymerase (Woodchuck hepatitis B virus, UniProt P03160).
T2 construct: WHV was obtained from a serum pool of five woodchucks (Marmota monax) chronic carriers of the virus; from tissue; host or cells: virus particles purified from a serum pool of five chronically infected woodchucks (imported from Pennsylvania)
The series is described as follows: WHV endogenous DNA polymerase assay, inhibition by nucleoside triphosphate analogs. The class given is biochemical. The following applies: for ID50 relative to ID50 of FIACTP: times more than FIACTP; for Affinity of WHV DNA polymerase to the analog compared with HBV DNA polymerase: WHV versus HBV DNA polymerase.
Text: as §1, §2, §3, §4, §5

The target in series [4] is T1, HBV DNA polymerase. Kind of series: Time course of viral DNA synthesis with the analog as alternate substrate. The class given is biochemical, hepatitis B virion (HBV). The settings on record: for DNA synthesis when the natural triphosphate is substituted by the analog: ara-TTP for dTTP, ara-CTP for dCTP, ACVTP for dGTP; for Viral DNA syntheses with dTTP substituted by the analog: [3H] dATP labelled substrate. As to the method:
as §3
The [^32 p] DNA product by the endogenous DNA polymerase reaction was analysed by agarose gel electrophoresis as described by Summers et al (Proc. Natl. Acad. Sci. U.S.A. 72, 4597-4601 (1975)). The reaction was made in 15 ul of the standard DNA polymerase mixture with 1 uM of [^32 p] dCTP (500 Ci/mmol) as labelled nucleotide.
After 2 h incubation at 37° C., the reaction was terminated by the addition of 20 ul of 10 mM Tris, 10 mM EDTA, 0, 1 mg per ml of proteinase K, 0, 1% (wt/vol) sodium dodecyl sulfate, followed by further incubation for 60 mn at 37° C. 5 ul of 5% (wt/vol) sucrose, 1% bromophenol blue was added, the entire mixture was heated for […] at 65° C., immediately colded at 4° C. and then analyzed by electrophoresis on a horizontal slab gel of 1% agarose. After electrophoresis, the gel was dried and developed by autoradiography.
To determine the effect of the three analogs on viral DNA synthesis, a time course experiment was performed with HBV DNA polymerase. [^3 ] dATP was used as the labelled substrate. […] The substitution of dTTP by BVdUTP permitted the viral DNA syntheses up to 46 percent of the control after 3 h of reaction. This value increased to 67 percent of the optimal activity after 4 h of reaction. […] The DNA synthesized with BVdUTP as alternate substrate was analyzed by agarose gel electrophoresis.

In another series the test system is HBV replication. The settings on record: patients with chronic hepatitis B; Weller et al 1982, 1983; cited from earlier work.
The target of series [5] is T2, WHV DNA polymerase. Kind of series: Analog as alternate substrate of WHV DNA polymerase. The class given is biochemical.
The next series can be described thus: Solubility in water. The class given is physicochemical. An excerpt: These compounds are soluble in water and therefore water or water based solutions are preferred as solvents for treating patients. The solubilities are as follows:
The solubility of these compounds can be increased by adding acid or base to the aqueous solvent.

[6] abbreviates: water, at 28°, read-out: Solubility.

pIC50: −log10 of the molar value. Values after ≈ are worked out from the molar mass of the structure shown. Read-outs that look alike come from different tables or passages of the source.

T1 sequence (P03156 whole entry): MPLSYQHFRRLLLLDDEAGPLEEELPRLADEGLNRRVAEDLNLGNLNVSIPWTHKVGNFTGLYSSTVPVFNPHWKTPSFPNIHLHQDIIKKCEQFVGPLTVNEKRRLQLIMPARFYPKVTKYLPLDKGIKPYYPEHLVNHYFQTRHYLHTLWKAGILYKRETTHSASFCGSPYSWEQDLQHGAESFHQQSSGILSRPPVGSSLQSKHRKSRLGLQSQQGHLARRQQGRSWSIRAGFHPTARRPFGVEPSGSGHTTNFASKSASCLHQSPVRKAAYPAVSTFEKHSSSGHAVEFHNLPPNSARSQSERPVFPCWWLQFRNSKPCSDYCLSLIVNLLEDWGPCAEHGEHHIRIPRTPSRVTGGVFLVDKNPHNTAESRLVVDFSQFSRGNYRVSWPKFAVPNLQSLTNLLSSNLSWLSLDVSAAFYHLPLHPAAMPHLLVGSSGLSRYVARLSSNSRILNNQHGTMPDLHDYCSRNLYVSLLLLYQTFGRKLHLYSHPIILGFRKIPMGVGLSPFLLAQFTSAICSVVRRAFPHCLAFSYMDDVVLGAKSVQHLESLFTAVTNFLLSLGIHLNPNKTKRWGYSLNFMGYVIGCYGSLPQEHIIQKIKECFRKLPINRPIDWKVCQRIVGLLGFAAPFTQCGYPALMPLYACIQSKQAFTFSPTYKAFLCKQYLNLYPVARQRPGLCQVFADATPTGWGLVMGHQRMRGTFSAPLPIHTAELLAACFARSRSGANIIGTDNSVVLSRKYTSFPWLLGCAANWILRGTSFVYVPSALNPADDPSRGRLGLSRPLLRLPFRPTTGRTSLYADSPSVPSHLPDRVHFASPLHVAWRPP
T2 sequence (P03160 whole entry): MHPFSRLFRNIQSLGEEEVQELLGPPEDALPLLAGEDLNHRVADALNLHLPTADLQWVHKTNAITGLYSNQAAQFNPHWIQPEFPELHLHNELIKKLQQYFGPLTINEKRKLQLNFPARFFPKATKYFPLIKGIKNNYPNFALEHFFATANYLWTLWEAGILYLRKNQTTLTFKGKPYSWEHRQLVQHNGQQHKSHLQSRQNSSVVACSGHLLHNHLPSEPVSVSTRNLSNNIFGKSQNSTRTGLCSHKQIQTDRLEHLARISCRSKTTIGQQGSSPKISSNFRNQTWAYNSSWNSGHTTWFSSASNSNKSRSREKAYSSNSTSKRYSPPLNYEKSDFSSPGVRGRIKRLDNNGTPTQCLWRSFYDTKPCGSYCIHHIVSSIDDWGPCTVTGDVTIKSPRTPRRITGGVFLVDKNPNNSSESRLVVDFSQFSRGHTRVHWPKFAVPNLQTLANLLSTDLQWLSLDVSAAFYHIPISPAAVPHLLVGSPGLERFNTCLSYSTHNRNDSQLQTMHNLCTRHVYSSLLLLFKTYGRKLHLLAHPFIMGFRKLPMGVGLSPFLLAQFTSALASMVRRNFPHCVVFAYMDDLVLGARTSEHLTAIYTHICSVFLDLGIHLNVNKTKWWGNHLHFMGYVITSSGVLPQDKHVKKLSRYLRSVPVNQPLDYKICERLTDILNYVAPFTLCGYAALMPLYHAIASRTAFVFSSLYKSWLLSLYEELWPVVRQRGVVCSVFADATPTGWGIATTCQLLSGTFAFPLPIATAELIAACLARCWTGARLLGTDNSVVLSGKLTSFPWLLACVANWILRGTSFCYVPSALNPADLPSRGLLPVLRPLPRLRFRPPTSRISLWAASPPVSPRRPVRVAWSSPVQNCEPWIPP

On to `Nc1nc2c(ncn2COCCOP(=O)(O)OP(=O)(O)OP(=O)(O)O)c(=O)[nH]1` [ACVTP], for which the “ID50 relative to ID50 of FIACTP” value at HBV DNA polymerase [1] (HBV DNA polymerase) and at WHV DNA polymerase [3] (WHV DNA polymerase) was 18 times throughout. Also, the “Nature of inhibition (Lineweaver-Burk plots)” value (from here on “Nature of inhibition”) on HBV DNA polymerase [1] (HBV DNA polymerase) is “competitive”. Also, on HBV DNA polymerase [2] (5 um ACVTP instead of dGTP, first 120 min), the “Incorporation of [3H] dTMP with analog instead of dGTP” value was “no incorporation”. Besides, the “HBV DNA synthesis when reaction is started with analog and dGTP together” value on HBV DNA polymerase [2] (ACVTP 5 uM and dGTP 100 uM from start) is “a significant DNA synthesis was observed”. Moreover, on HBV DNA polymerase [2], the “HBV DNA synthesis after addition of the normal substrate at 120 min of reaction with the analog” value (“HBV DNA synthesis … with the analog” for short) was “no DNA synthesis was observed”. On WHV DNA polymerase [3], the “Affinity of WHV DNA polymerase to the analog compared with HBV DNA polymerase” value was “lower affinity”. For the same molecule, the “DNA synthesis when the natural triphosphate is substituted by the analog” value (“DNA synthesis … by the analog” below) on HBV DNA polymerase [4] was “did not increase the polymerization process”.
Turning to `Nc1nc2c(ncn2COCCO)c(=O)[nH]1` [ACV], the “In vivo inhibition of HBV replication” value in the series with HBV replication is “inhibition of HBV replication”.
Turning to `O=c1[nH]c(=O)n([C@H]2C[C@H](O)[C@@H](COP(=O)(O)OP(=O)(O)OP(=O)(O)O)O2)cc1/C=C/Br` [BVdUTP], the “DNA synthesized with analog as alternate substrate (agarose gel electrophoresis)” value on WHV DNA polymerase [5] (WHV DNA) and on HBV DNA polymerase [4] (HBV DNA) was “Only incomplete filling of the single stranded region” throughout. The “Efficiency as alternate substrate” value at WHV DNA polymerase [5] (WHV DNA polymerase) and on HBV DNA polymerase [4] (HBV DNA polymerase) was “most efficient alternate substrate” in each case. In addition, the “ID50 relative to ID50 of FIACTP” value at HBV DNA polymerase [1] (HBV DNA polymerase) and on WHV DNA polymerase [3] (WHV DNA polymerase) was 5 times throughout. The “Nature of inhibition” value at HBV DNA polymerase [1] (HBV DNA polymerase) is “competitive”. In addition, at WHV DNA polymerase [3], the “Affinity of WHV DNA polymerase to the analog compared with HBV DNA polymerase” value was “lower affinity”. For the same molecule, the “Viral DNA syntheses with dTTP substituted by the analog” value is 46% of the control on HBV DNA polymerase [4] (after 3 h of reaction) and 67% of the optimal activity at HBV DNA polymerase [4] (after 4 h of reaction).
`Nc1nc(=O)n([C@@H]2O[C@H](CO)[C@@H](O)[C@@H]2F)cc1I` [FIAC, 2'-fluoro-2'-deoxy-arabinosyl-5-iodocytosine]: the solubility in “Solubility in water” (water with 1 eq hcl, aqueous solvent with about one molar equivalent of hydrochloric acid, read-out: Solubility with added acid) is around 250 mg/mL; in the series “Solubility in water” (water, at 21°, read-out: Solubility), 7.2 mg/mL (≈ 19.4 mM).
For `Nc1nc(=O)n([C@@H]2O[C@H](COP(=O)(O)OP(=O)(O)OP(=O)(O)O)[C@@H](O)[C@@H]2F)cc1I` [FIACTP], the pIC50 at HBV DNA polymerase [1] (HBV DNA polymerase, radioactive triphosphate at 2 to 3 times Km, remaining nucleotides 50 uM, read-out: ID50 (concentration of triphosphate required to inhibit 50 percent of DNA polymerase)) is 7.30; at WHV DNA polymerase [3] (WHV DNA polymerase, radioactive triphosphate at 2 to 3 times Km, remaining nucleotides 50 uM, read-out: ID50 (concentration of triphosphate required to inhibit 50 percent of DNA polymerase)), 7.30. Further, the “Nature of inhibition” value at HBV DNA polymerase [1] (HBV DNA polymerase) is given as “competitive”. The “Relative efficiency as inhibitor of HBV DNA polymerase” value at HBV DNA polymerase [1] was “most efficient inhibitor”. The “Affinity of WHV DNA polymerase to the analog compared with HBV DNA polymerase” value on WHV DNA polymerase [3] is “lower affinity”. Further, the “Incorporation of [3H] dAMP with the analog instead of dCTP” value at HBV DNA polymerase [4] (after 3 h of reaction) is “about 10 % of the control”.
For `O=c1[nH]c(=O)n([C@@H]2O[C@H](CO)[C@@H](O)[C@@H]2F)cc1I` [FIAU, 2'-fluoro-2'-deoxy-arabinosyl-5-iodouracil], in the series “Solubility in water” (aqueous solvent with one equivalent of sodium hydroxide (sodium salt)), the “Solubility with added base” value is recorded as “increased many fold”. For the same molecule, in the series “Solubility in water” (setting [6]), the solubility was determined as 4 mg/mL (≈ 10.8 mM).
Regarding `Cc1cn([C@@H]2O[C@H](CO)[C@@H](O)[C@@H]2F)c(=O)[nH]c1=O` [FMAU, 2'-fluoro-2'-deoxy-arabinosyl-5-methyluracil], the solubility in the series “Solubility in water” (water, at 24°, read-out: Solubility) came to 66 mg/mL (≈ 254 mM); in the series “Solubility in water” (setting [6]) it was 81 mg/mL (≈ 311 mM).
Take `Nc1ncnc2c1ncn2[C@@H]1O[C@H](COP(=O)(O)OP(=O)(O)OP(=O)(O)O)[C@@H](O)[C@@H]1O` [ara-ATP]: the “HBV DNA synthesis … with the analog” value at HBV DNA polymerase [2] is given as “increased the HBV DNA synthesis”.
Turning to `Nc1ccn([C@@H]2O[C@H](COP(=O)(O)OP(=O)(O)OP(=O)(O)O)[C@@H](O)[C@@H]2O)c(=O)n1` [ara-CTP], the “Relative efficiency as inhibitor of HBV DNA polymerase” value at HBV DNA polymerase [1] is listed as “least efficient”. For the same molecule, on HBV DNA polymerase [2], the “HBV DNA synthesis … with the analog” value is “increased the HBV DNA synthesis”. On HBV DNA polymerase [4], the “DNA synthesis … by the analog” value is reported as “no significant incorporation”.
`Cc1cn([C@@H]2O[C@H](COP(=O)(O)OP(=O)(O)OP(=O)(O)O)[C@@H](O)[C@@H]2O)c(=O)[nH]c1=O` [ara-TTP]: the “DNA synthesis … by the analog” value at HBV DNA polymerase [4] is given as “no significant DNA synthesis”.

(Values after US4666892A, “Method and composition for hepatitis treatment with pyrimidine nucleoside compounds” (Sloan-Kettering Memorial Cancer Center, priority 1986, dated 1987).)
